These results are taken from patent publication US8133901B2, “3-heteroaryl (amino or amido)-1-(biphenyl or phenylthiazolyl) carbonylpiperidine derivatives as orexin receptor inhibitors” (Actelion Pharmaceuticals Ltd., priority 2006, dated 2012).

The IC50 is the concentration at which inhibition is half-maximal.

One assay concerns the target T1, human orexin-2 receptor (Homo sapiens, UniProt O43614).
T1 construct: expressed in transfected cells; host or cells: CHO cells (G418 selection)
T1 sequence (O43614 1-444): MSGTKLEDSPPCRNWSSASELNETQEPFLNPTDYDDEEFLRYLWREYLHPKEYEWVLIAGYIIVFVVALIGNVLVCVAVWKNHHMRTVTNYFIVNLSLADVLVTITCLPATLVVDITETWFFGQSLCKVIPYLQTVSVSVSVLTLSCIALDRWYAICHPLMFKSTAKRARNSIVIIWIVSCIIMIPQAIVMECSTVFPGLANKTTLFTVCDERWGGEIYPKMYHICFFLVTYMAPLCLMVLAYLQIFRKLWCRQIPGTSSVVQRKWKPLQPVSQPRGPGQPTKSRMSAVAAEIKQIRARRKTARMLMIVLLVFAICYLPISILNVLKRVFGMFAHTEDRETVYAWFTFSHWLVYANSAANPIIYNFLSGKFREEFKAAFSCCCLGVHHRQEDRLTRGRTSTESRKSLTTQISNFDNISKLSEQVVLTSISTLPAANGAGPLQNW
Kind of assay: Intracellular calcium measurements (FLIPR), orexin receptor antagonistic activity, OX2. Particulars: CHO cells expressing the human orexin-2 receptor; 10 nM orexin-A as agonist; fluo-3 calcium signal. The class given is cell-based. On the procedure: (§1) The orexin receptor antagonistic activity of the compounds of formula (I) is determined in accordance with the following experimental method.
(§2) Chinese hamster ovary (CHO) cells expressing the human orexin-1 receptor and the human orexin-2 receptor, respectively, are grown in culture medium (Ham F-12 with L-Glutamine) containing 300 μg/ml G418, 100 U/ml penicillin, 100 μg/ml streptomycin and 10% inactivated fetal calf serum (FCS). The cells are seeded at 80′000 cells/well into 96-well black clear bottom sterile plates (Costar) which have been precoated with 1% gelatine in Hanks' Balanced Salt Solution (HBSS). All reagents are from Gibco BRL. The seeded plates are incubated overnight at 37° C. in 5% CO2.
(§3) Human orexin-A as an agonist is prepared as 1 mM stock solution in methanol:water (1:1), diluted in HBSS containing 0.1% bovine serum albumin (BSA) and 2 mM HEPES for use in the assay at a final concentration of 10 nM.
(§4) Antagonists are prepared as 10 mM stock solution in DMSO, then diluted in 96-well plates, first in DMSO, then in HBSS containing 0.1% bovine serum albumin (BSA) and 2 mM HEPES.
(§5) On the day of the assay, 100 μl of loading medium (HBSS containing 1% FCS, 2 mM HEPES, 5 mM probenecid (Sigma) and 3 μM of the fluorescent calcium indicator fluo-3 AM (1 mM stock solution in DMSO with 10% pluronic acid) (Molecular Probes) is added to each well.
(§6) The 96-well plates are incubated for 60 min at 37° C. in 5% CO2. The loading solution is then aspirated and cells are washed 3 times with 200 μl HBSS containing 2.5 mM probenecid, 0.1% BSA, 2 mM HEPES. 100 μl of that same buffer is left in each well.
(§7) Within the Fluorescent Imaging Plate Reader (FLIPR, Molecular Devices), antagonists are added to the plate in a volume of 50 μl, incubated for 20 min and finally 100 μl of agonist is added. Fluorescence is measured for each well at 1 second intervals, and the height of each fluorescence peak is compared to the height of the fluorescence peak induced by 10 nM orexin-A with buffer in place of antagonist. For each antagonist, IC50 value (the concentration of compound needed to inhibit 50% of the agonistic response) is determined.
A general note: Calcium flux is commonly read through the fluorescence of an indicator in the cells.

Another assay has as its target T2, human orexin-1 receptor (Homo sapiens, UniProt O43613).
T2 construct: expressed in transfected cells; host or cells: CHO cells (G418 selection)
T2 sequence (O43613 1-425): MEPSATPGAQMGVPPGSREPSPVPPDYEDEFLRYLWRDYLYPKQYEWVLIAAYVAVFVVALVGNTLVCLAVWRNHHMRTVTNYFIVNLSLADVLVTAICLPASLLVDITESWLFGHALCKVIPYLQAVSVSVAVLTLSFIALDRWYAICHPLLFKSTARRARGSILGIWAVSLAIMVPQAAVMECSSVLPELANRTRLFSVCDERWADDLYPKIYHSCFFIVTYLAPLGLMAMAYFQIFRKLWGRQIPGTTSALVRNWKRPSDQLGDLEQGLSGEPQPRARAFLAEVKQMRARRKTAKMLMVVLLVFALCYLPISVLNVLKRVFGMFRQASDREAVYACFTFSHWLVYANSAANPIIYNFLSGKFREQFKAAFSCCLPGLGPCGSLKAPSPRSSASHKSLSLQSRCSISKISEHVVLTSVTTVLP
Kind of assay: Intracellular calcium measurements (FLIPR), orexin receptor antagonistic activity, OX1. The class given is cell-based. The settings on record: CHO cells expressing the human orexin-1 receptor; 10 nM orexin-A as agonist; fluo-3 calcium signal. On the procedure: as §1, §2, §3, §4, §5, §6, §7

For the compound `Cc1nc(C(=O)N2CCC[C@@H](NC(=O)c3c(C)nc4sccn34)C2)c(-c2ccccc2F)s1` [Example 15, (R)-6-Methyl-imidazo[2,1-b]thiazole-5-carboxylic acid{1-[5-(2-fluoro-phenyl)-2-methyl-thiazole-4-carbonyl]-piperidin-3-yl}-amide], the IC50 was found to be 97 nM on human orexin-2 receptor and 65 nM at human orexin-1 receptor.

In the case of `Cc1ccc(-c2sc(C)nc2C(=O)N2CCC[C@@H](NC(=O)c3c(C)nc4sccn34)C2)cc1` [Example 9, (R)-6-Methyl-imidazo[2,1-b]thiazole-5-carboxylic acid[1-(2-methyl-5-p-tolyl-thiazole-4-carbonyl)-piperidin-3-yl]-amide], the IC50 amounted to 165 nM on human orexin-2 receptor and 101 nM on human orexin-1 receptor.

Regarding `O=C(c1ccccc1-c1ccccc1)N1CCC[C@@H](Nc2ncc(Br)cn2)C1` [Example 1, (R)-Biphenyl-2-yl-[3-(5-bromo-pyrimidin-2-ylamino)-piperidin-1-yl]-methanone], the IC50 on human orexin-2 receptor was 392 nM; on human orexin-1 receptor, 294 nM.

For the compound `O=C(c1ccccc1-c1ccccc1F)N1CCC[C@@H](Nc2ncc(Br)cn2)C1` [Example 3, (R)-[3-(5-Bromo-pyrimidin-2-ylamino)-piperidin-1-yl]-(2′-fluoro-biphenyl-2-yl)-methanone], the 50% inhibitory concentration (IC50) worked out at 171 nM at human orexin-2 receptor and 81 nM on human orexin-1 receptor.

As for `Cc1cccc(-c2sc(C)nc2C(=O)N2CCC[C@@H](NC(=O)c3c(C)nc4sccn34)C2)c1` [Example 7, (R)-6-Methyl-imidazo[2,1-b]thiazole-5-carboxylic acid[1-(2-methyl-5-m-tolyl-thiazole-4-carbonyl)-piperidin-3-yl]-amide], the figures for the concentration for half-maximal inhibition (IC50) on human orexin-2 receptor and at human orexin-1 receptor were 50 nM and 27 nM, respectively.
